Test results: the supplement of paper PMC10307832

Tests used:
Test in all cases: relative viability (nuclei count vs DMSO), 5 days (fraction); higher = more cells survive
[1] = compound: COc1cc(Nc2ncc3c(n2)-c2ccc(Cl)cc2C(c2c(F)cccc2OC)=NC3)ccc1C(=O)O [Alisertib] + CS(=O)(=O)CCNCc1ccc(-c2ccc3ncnc(Nc4ccc(OCc5cccc(F)c5)c(Cl)c4)c3c2)o1 [Lapatinib] (partner 2 µM)
Procedure, shortened: (§1)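 Lung cancer cell lines in 1536-well plates got either a single drug or a fixed anchor-drug dose together with five library-drug doses (not always all listed) in √10 steps, by pin tool, on the day after seeding. Nuclei were counted after 5 days, and relative viability is the treated-to-vehicle ratio of nuclei counts. Values are medians of duplicate plates.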

[2] = compound: COc1cc(Nc2ncc3c(n2)-c2ccc(Cl)cc2C(c2c(F)cccc2OC)=NC3)ccc1C(=O)O [Alisertib] + C[C@@H](Oc1cc(-c2cnn(C3CCNCC3)c2)cnc1N)c1c(Cl)ccc(F)c1Cl [Crizotinib] (partner 1 µM)
Procedure, shortened: as §1

[3] = compound: COc1cc(Nc2ncc3c(n2)-c2ccc(Cl)cc2C(c2c(F)cccc2OC)=NC3)ccc1C(=O)O [Alisertib] + Cc1nc(Nc2ncc(C(=O)Nc3c(C)cccc3Cl)s2)cc(N2CCN(CCO)CC2)n1 [Dasatinib] (partner 0.075 µM)
Procedure, shortened: as §1

[4] = compound: COc1cc(Nc2ncc3c(n2)-c2ccc(Cl)cc2C(c2c(F)cccc2OC)=NC3)ccc1C(=O)O [Alisertib] + Nc1nc2[nH]cc(CCc3ccc(C(=O)N[C@@H](CCC(=O)O)C(=O)O)cc3)c2c(=O)[nH]1 [Pemetrexed] (partner 0.2 µM)
Procedure, shortened: as §1

Cell Line	relative viability ([1]; first compound 0.005 µM)	relative viability ([1]; first compound 0.01581 µM)	relative viability ([1]; first compound 0.05 µM)	relative viability ([1]; first compound 0.1581 µM)	relative viability ([1]; first compound 0.5 µM)	relative viability ([2]; first compound 0.005 µM)	relative viability ([2]; first compound 0.01581 µM)	relative viability ([2]; first compound 0.05 µM)	relative viability ([2]; first compound 0.1581 µM)	relative viability ([2]; first compound 0.5 µM)	relative viability ([3]; first compound 0.005 µM)	relative viability ([3]; first compound 0.01581 µM)	relative viability ([3]; first compound 0.05 µM)	relative viability ([3]; first compound 0.1581 µM)	relative viability ([3]; first compound 0.5 µM)	relative viability ([4]; first compound 0.005 µM)	relative viability ([4]; first compound 0.01581 µM)	relative viability ([4]; first compound 0.05 µM)	relative viability ([4]; first compound 0.1581 µM)	relative viability ([4]; first compound 0.5 µM)
LCLC-97TM1	0.405	0.723	0.623	0.262	0.126	0.334	0.298	0.138	0.128	0.152	0.773	0.712	0.709	0.192	0.173	0.162	0.173	0.186	0.118	0.0781
HARA	0.616	0.631	0.848	0.129	0.0993	1.05	0.796	0.277	0.169	0.135	0.265	0.283	0.279	0.125	0.0962	0.262	0.211	0.26	0.21	0.125
HCC-78	0.743	0.783	0.428	0.205	0.19	0.358	0.291	0.205	0.153	0.205	0.379	0.369	0.177	0.171	0.188	0.889	0.909	0.895	0.959	0.926
NCI-H1666	0.672	0.451	0.436	0.28	0.236	0.934	0.729	0.474	0.349	0.363	0.693	0.695	0.527	0.336	0.323	0.829	0.844	0.791	0.672	0.537
NCI-H2347	0.815	0.911	0.877	0.738	0.531	0.783	0.526	0.61	0.454	0.468	0.263	0.339	0.275	0.268	0.222	0.424	0.423	0.416	0.409	0.349
PC-14	0.402	0.31	0.329	0.184	0.099	0.845	0.877	0.654	0.145	0.112	0.213	0.248	0.177	0.0304	0.0192	0.103	0.138	0.146	0.0731	0.052
NCI-H2023	0.848	0.602	0.41	0.135	0.0899	0.721	0.64	0.345	0.142	0.112	0.561	0.492	0.35	0.167	0.0881	0.192	0.222	0.177	0.152	0.101
201T	0.94	1.06	1.05	0.954	0.458	0.982	0.992	0.938	0.809	0.418	0.527	0.556	0.583	0.327	0.284	0.314	0.299	0.358	0.335	0.274
NCI-H1915	0.787	0.821	0.606	0.305	0.253	0.777	0.721	0.307	0.317	0.192	0.297	0.299	0.295	0.148	0.14	0.432	0.382	0.325	0.262	0.219
NCI-H2009	0.863	0.76	0.355	0.255	0.319	0.927	0.916	0.453	0.238	0.175	0.259	0.292	0.211	0.141	0.129	0.959	0.987	0.724	0.475	0.168
BEN	0.707	0.585	0.261	0.203	0.221	0.868	0.838	0.238	0.213	0.237	0.499	0.39	0.296	0.178	0.138	0.629	0.784	0.335	0.358	0.342
PC-3 [JPC-3]	0.453	0.441	0.441	0.374	0.329	0.955	0.981	0.646	0.474	0.386	0.917	0.927	0.907	0.781	0.442	1.06	0.988	0.885	0.388	0.287
SK-MES-1	0.468	0.508	0.411	0.263	0.219	0.914	0.801	0.673	0.25	0.18	0.354	0.466	0.253	0.125	0.074	0.904	0.787	0.661	0.442	0.191
NCI-H838	0.827	0.673	0.391	0.257	0.164	0.821	0.727	0.281	0.218	0.186	0.289	0.298	0.263	0.239	0.189	0.222	0.233	0.198	0.2	0.17
NCI-H1355	0.914	0.837	0.671	0.258	0.184	1.08	0.906	0.737	0.215	0.186	0.691	0.702	0.664	0.177	0.184	0.904	0.875	0.65	0.27	0.197
NCI-H1975	0.78	0.808	0.457	0.234	0.174	0.945	0.728	0.301	0.27	0.193	0.298	0.333	0.286	0.153	0.109	0.289	0.265	0.235	0.214	0.185
LK-2	0.842	0.87	0.49	0.344	0.242	0.226	0.232	0.224	0.233	0.288	0.353	0.267	0.212	0.192	0.153	0.286	0.236	0.188	0.141	0.148
NCI-H727	0.75	0.68	0.497	0.384	0.314	0.691	0.675	0.361	0.315	0.267	0.425	0.357	0.397	0.243	0.242	–	–	–	–	–
HCC-366	1.02	0.31	0.0171	0.0127	0.0262	0.686	0.456	0.0307	0.0254	0.0216	0.674	0.353	0.0282	0.0222	0.0468	0.169	0.131	0.0451	0.0421	0.0514

Cell Line	relative viability ([1]; first compound 0.005 µM)	relative viability ([1]; first compound 0.01581 µM)	relative viability ([1]; first compound 0.05 µM)	relative viability ([1]; first compound 0.1581 µM)	relative viability ([1]; first compound 0.5 µM)	relative viability ([2]; first compound 0.005 µM)	relative viability ([2]; first compound 0.01581 µM)	relative viability ([2]; first compound 0.05 µM)	relative viability ([2]; first compound 0.1581 µM)	relative viability ([2]; first compound 0.5 µM)	relative viability ([3]; first compound 0.005 µM)	relative viability ([3]; first compound 0.01581 µM)	relative viability ([3]; first compound 0.05 µM)	relative viability ([3]; first compound 0.1581 µM)	relative viability ([3]; first compound 0.5 µM)	relative viability ([4]; first compound 0.005 µM)	relative viability ([4]; first compound 0.01581 µM)	relative viability ([4]; first compound 0.05 µM)	relative viability ([4]; first compound 0.1581 µM)	relative viability ([4]; first compound 0.5 µM)
HOP-62	0.838	0.803	0.883	0.223	0.146	0.833	0.743	0.232	0.212	0.104	0.537	0.688	0.433	0.185	0.154	0.282	0.283	0.204	0.171	0.112
NCI-H1944	0.769	0.829	0.764	0.36	0.188	1.05	1.04	0.504	0.386	0.222	0.196	0.217	0.218	0.113	0.113	0.579	0.662	0.564	0.246	0.18
UMC-11	0.438	0.29	0.162	0.163	0.158	0.515	0.285	0.117	0.103	0.0832	0.32	0.184	0.157	0.144	0.127	0.602	0.26	0.196	0.18	0.175
LU99A	0.855	0.852	0.651	0.214	0.186	0.513	0.451	0.245	0.217	0.182	0.502	0.513	0.323	0.183	0.17	0.205	0.193	0.185	0.161	0.145
NCI-H441	–	–	–	–	–	0.626	0.555	0.131	0.178	0.136	0.621	0.332	0.186	0.165	0.176	0.288	0.279	0.249	0.145	0.142
EBC-1	0.224	0.21	0.188	0.178	0.152	0.177	0.189	0.174	0.139	0.155	–	–	–	–	–	–	–	–	–	–
HCC-44	0.991	0.922	0.906	0.242	0.151	0.872	0.769	0.388	0.219	0.176	–	–	–	–	–	0.566	0.601	0.545	0.45	0.394
NCI-H1648	–	–	–	–	–	–	–	–	–	–	–	–	–	–	–	–	0.658	0.752	0.27	0.276
SW 900	–	–	–	–	–	–	–	–	–	–	0.494	0.435	0.404	0.171	0.172	0.445	0.459	0.438	0.178	0.194
ABC-1	1.22	1.1	1.05	0.91	0.616	1.1	0.551	0.363	0.318	0.23	0.46	0.436	0.434	0.226	0.243	–	–	–	–	–
NCI-H1793	0.887	0.376	0.41	0.22	0.27	–	–	–	–	–	0.397	0.242	0.186	0.11	0.116	0.551	0.339	0.356	0.232	0.209
NCI-H1395	0.865	0.843	0.795	0.596	0.391	–	–	–	–	–	0.384	0.376	0.451	0.329	0.296	0.725	0.766	0.574	0.413	0.353
NCI-H1299	0.939	0.904	0.586	0.452	0.295	0.965	0.727	0.671	0.348	0.252	–	–	–	–	–	–	–	–	–	–
ChaGo-K-1	–	–	–	–	–	1.08	0.849	0.366	0.344	0.317	0.488	0.6	0.277	0.165	0.162	0.238	0.281	0.238	0.189	0.169
NCI-H522	–	–	–	–	–	–	–	–	–	–	0.812	0.91	0.67	0.323	0.434	0.743	1.22	0.989	0.637	0.516
A549	0.812	0.235	0.148	0.0742	0.0628	0.611	0.197	0.0682	0.0571	0.0624	–	–	–	–	–	–	–	–	–	–
IA-LM	0.853	0.91	0.309	0.212	0.184	0.831	0.608	0.485	0.256	0.104	–	–	–	–	–	–	–	–	–	–
LCLC-103H	–	–	–	–	–	1.04	1.04	0.719	0.374	0.412	0.455	0.509	0.423	0.26	0.158	0.497	0.511	0.417	0.399	0.347
Calu-6	0.925	0.541	0.382	0.204	0.216	0.697	0.334	0.204	0.227	0.198	–	–	–	–	–	–	–	–	–	–
